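How tested: cells in 96-well plates exposed to compound for 48 hours at five concentrations. At the GI50, growth is halved.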 Active and inactive are the calls of the source. Cut-off read from the data, not from the text of the source: active = GI50 up to about 1.1 µM and inactive = higher. Non-standard residues stand in square brackets, D forms with d. Residues, ends and D or L forms follow the SMILES beside them. ξ: configuration not given here. *: point of attachment. NMeF = CN[C@@H](Cc1ccccc1)C(=O)O; NMeN = CN[C@@H](CC(N)=O)C(=O)O; NMeV = CN[C@H](C(=O)O)C(C)C; ξNMeV = CNC(C(=O)O)C(C)C; Boc = CC(C)(C)OC(=O)*; ξNMeA = CNC(C)C(=O)O; ξV = CC(C)C(N)C(=O)O
Experiments:
Test in all cases: NCI tumour cell line growth inhibition, 48 h
[1] = system: U-251
[2] = system: LXFL 529
[3] = system: HCT-116
[4] = system: SNB-78
[5] = system: CCRF-CEM
[6] = system: UO-31
[7] = system: HOP-92
[8] = system: CAKI-1
[9] = system: SF-268
[10] = system: DMS-273
[11] = system: M14
[12] = system: IGROV-1
[13] = system: SNB-19
[14] = system: COLO 205
[15] = system: HT-29
[16] = system: NCI-H23
[17] = system: OVCAR-5
[18] = system: HL-60
[19] = system: Malme-3M
[20] = system: Hs-578T

Structure (SMILES)	GI50 [1]	GI50 [2]	GI50 [3]	GI50 [4]	GI50 [5]	GI50 [6]	GI50 [7]	GI50 [8]	GI50 [9]	GI50 [10]	GI50 [11]	GI50 [12]	GI50 [13]	GI50 [14]	GI50 [15]	GI50 [16]	GI50 [17]	GI50 [18]	GI50 [19]	GI50 [20]
Cc1nnc2n1N=C(c1ccccc1)C(c1ccccc1)S2 (stereo not drawn)	23.1 µM (inactive)	29.4 µM (inactive)	38.2 µM (inactive)	55.5 µM (inactive)	19.3 µM (inactive)	51.3 µM (inactive)	60.4 µM (inactive)	64.9 µM (inactive)	44.9 µM (inactive)	22.3 µM (inactive)	16.3 µM (inactive)	97.5 µM (inactive)	46.3 µM (inactive)	21.3 µM (inactive)	34.8 µM (inactive)	24.3 µM (inactive)	> 100 µM (inactive)	24.5 µM (inactive)	64.1 µM (inactive)	–
Cc1cc(NC(=O)NC(=O)c2ccccc2[N+](=O)[O-])ccc1Oc1ncc(Cl)cn1	0.0916 µM (active)	0.0773 µM (active)	0.082 µM (active)	0.0964 µM (active)	0.0552 µM (active)	0.0889 µM (active)	–	–	1.9 µM (inactive)	0.0501 µM (active)	0.0782 µM (active)	0.51 µM (active)	0.212 µM (active)	0.107 µM (active)	0.0488 µM (active)	0.222 µM (active)	16.5 µM (inactive)	0.0327 µM (active)	0.0231 µM (active)	0.0257 µM (active)
C[C@]12CCc3nonc3C1CC[C@@H]1C2CC[C@]2(C)C(=O)/C(=N\O)CC12 (stereo partly drawn)	> 100 µM (inactive)	77.4 µM (inactive)	> 100 µM (inactive)	> 100 µM (inactive)	> 100 µM (inactive)	> 100 µM (inactive)	> 100 µM (inactive)	> 100 µM (inactive)	> 100 µM (inactive)	> 100 µM (inactive)	> 100 µM (inactive)	> 100 µM (inactive)	> 100 µM (inactive)	54.3 µM (inactive)	> 100 µM (inactive)	> 100 µM (inactive)	> 100 µM (inactive)	1.03 µM (active)	> 100 µM (inactive)	–
COC(=O)C(C)N(C)C(=O)[C@H](CC(N)=O)N(C)C(=O)[C@@H]1CCCN1C(=O)[C@H](C(C)C)N(C)C(=O)C(C(C)C)N(C)C(=O)[C@H](Cc1ccccc1)N(C)C(=O)C(NC(=O)OC(C)(C)C)C(C)C (stereo partly drawn) (Boc-[ξV][NMeF][ξNMeV][NMeV]P[NMeN][ξNMeA]-OMe)	11.2 µM (inactive)	3.13 µM (inactive)	16.3 µM (inactive)	17.9 µM (inactive)	24 µM (inactive)	37.8 µM (inactive)	20.9 µM (inactive)	> 50 µM (inactive)	13.9 µM (inactive)	15.1 µM (inactive)	15.9 µM (inactive)	22.4 µM (inactive)	19.7 µM (inactive)	13.3 µM (inactive)	18.3 µM (inactive)	17.6 µM (inactive)	> 50 µM (inactive)	15.6 µM (inactive)	17.8 µM (inactive)	10.8 µM (inactive)
COC(=O)c1[nH]c(=S)[nH]c(=O)c1-c1ccc(Cl)cc1	> 50 µM (inactive)	> 50 µM (inactive)	> 50 µM (inactive)	> 50 µM (inactive)	> 50 µM (inactive)	> 50 µM (inactive)	> 50 µM (inactive)	> 12.2 µM (inactive)	> 50 µM (inactive)	> 50 µM (inactive)	> 50 µM (inactive)	> 50 µM (inactive)	> 50 µM (inactive)	> 50 µM (inactive)	> 50 µM (inactive)	> 50 µM (inactive)	> 50 µM (inactive)	> 50 µM (inactive)	> 50 µM (inactive)	–
N#CC1=C(Cl)NC(Cl)=C(C#N)C1c1c(Cl)cccc1Cl	16.3 µM (inactive)	30.8 µM (inactive)	18.7 µM (inactive)	92.7 µM (inactive)	24.4 µM (inactive)	49.4 µM (inactive)	21.4 µM (inactive)	55.6 µM (inactive)	30.4 µM (inactive)	19.6 µM (inactive)	38.8 µM (inactive)	37.9 µM (inactive)	27.9 µM (inactive)	17.5 µM (inactive)	31.4 µM (inactive)	35.9 µM (inactive)	> 100 µM (inactive)	19.6 µM (inactive)	46 µM (inactive)	–
Cc1cc2c(c3oc(C(O)(CO)C4CO4)cc(=O)c13)C(=O)c1c(O)cccc1C2=O (stereo not drawn)	0.000826 µM (active)	< 0.01 µM (active)	0.000363 µM (active)	0.031 µM (active)	4.14e-05 µM (active)	0.000154 µM (active)	0.00013 µM (active)	0.000463 µM (active)	0.00156 µM (active)	< 0.01 µM (active)	0.00168 µM (active)	0.000266 µM (active)	0.00119 µM (active)	0.00163 µM (active)	0.00104 µM (active)	–	0.00229 µM (active)	0.000377 µM (active)	0.00169 µM (active)	0.00436 µM (active)

Reference: ChEMBL document CHEMBL1201862, “PubChem BioAssay data set” (2004)
